# Patent publication US10774092B2 (SALK INSTITUTE FOR BIOLOGICAL STUDIES, priority 2014, dated 2020)
# Where a name gives a salt, the structure may show the parent alone.
# Legend:
# ULK1 [1] = target: ULK1 (Homo sapiens, UniProt O75385); test: ULK1 inhibition assay (Table 1); format: biochemical; conditions: * = tested as a mixture of regioisomers
# ULK1 [2] = test: ULK1 inhibition assay (Table 1); format: biochemical; conditions: * = tested as a mixture of regioisomers
# ULK1 (Homo sapiens, UniProt O75385), sequence (O75385 whole entry, looked up): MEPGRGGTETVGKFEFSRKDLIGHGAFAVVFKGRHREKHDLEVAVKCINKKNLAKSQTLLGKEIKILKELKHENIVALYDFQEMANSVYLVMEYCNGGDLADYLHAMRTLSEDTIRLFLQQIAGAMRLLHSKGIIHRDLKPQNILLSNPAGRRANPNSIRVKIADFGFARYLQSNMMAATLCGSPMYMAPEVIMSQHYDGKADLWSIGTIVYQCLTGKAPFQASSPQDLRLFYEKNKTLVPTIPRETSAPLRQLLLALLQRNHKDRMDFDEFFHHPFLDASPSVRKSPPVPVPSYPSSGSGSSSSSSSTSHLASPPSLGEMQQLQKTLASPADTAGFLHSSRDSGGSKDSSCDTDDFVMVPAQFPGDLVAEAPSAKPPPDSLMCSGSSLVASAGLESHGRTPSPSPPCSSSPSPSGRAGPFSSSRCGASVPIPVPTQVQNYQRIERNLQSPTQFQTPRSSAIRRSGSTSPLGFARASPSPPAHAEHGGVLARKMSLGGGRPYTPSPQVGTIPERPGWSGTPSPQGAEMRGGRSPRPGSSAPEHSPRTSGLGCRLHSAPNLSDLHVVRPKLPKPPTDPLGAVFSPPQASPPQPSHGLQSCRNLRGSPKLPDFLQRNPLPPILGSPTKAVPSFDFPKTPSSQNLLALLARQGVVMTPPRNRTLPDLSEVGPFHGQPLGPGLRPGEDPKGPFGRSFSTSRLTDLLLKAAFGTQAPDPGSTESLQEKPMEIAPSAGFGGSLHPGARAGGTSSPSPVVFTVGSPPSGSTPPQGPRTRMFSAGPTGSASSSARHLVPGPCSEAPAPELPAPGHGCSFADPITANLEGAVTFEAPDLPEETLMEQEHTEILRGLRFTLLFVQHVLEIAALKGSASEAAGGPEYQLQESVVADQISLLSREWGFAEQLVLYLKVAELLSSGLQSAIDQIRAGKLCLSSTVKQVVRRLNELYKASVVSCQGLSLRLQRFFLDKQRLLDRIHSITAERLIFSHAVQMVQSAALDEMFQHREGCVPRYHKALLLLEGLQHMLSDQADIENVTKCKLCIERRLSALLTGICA
Compound,IC50 (ULK1 [1]) [nM],IC50 (ULK1 [2]) [nM]
"Nc1nc(Nc2cnc3[nH]ccc3c2)ncc1C(F)(F)F [Example 217, N2-(1H-pyrrolo[2,3-b]pyridin-5-yl)-5-(trifluoromethyl) pyrimidine-2,4-diamine]",> 2000,
"O=C(Nc1ccc(Nc2ncc(C(F)(F)F)c(NC3CC3)n2)cc1)C1CC1 [Example 312, N-(4-((4-(cyclopropylamino)-5-(trifluoromethyl)pyrimidin-2-yl)amino)phenyl)cyclopropanecarboxamide]",< 200,
"O=c1[nH]c2ncc(Nc3nc(Nc4ccc5c(c4)OCCO5)ncc3Br)cc2o1 [Example 192, 6-((5-bromo-2-((2,3-dihydrobenzo[b][1,4]dioxin-6-yl)amino)pyrimidin-4-yl)amino)oxazolo[4,5-b]pyridin-2(3H)-one]",< 200,
"O=C1CCc2cc(Nc3ncc(C(F)(F)F)c(NC4COC4)n3)ccc2N1 [Example 193, 6-((4-(oxetan-3-ylamino)-5-(trifluoromethyl)pyrimidin-2-yl)amino)-3,4-dihydroquinolin-2(1H)-one]",> 2000,
"CNC(=O)c1ccccc1Oc1nc(Nc2cc(OC)c(OC)c(OC)c2)ncc1Cl [Example 234a, 2-((5-chloro-2-((3,4,5-trimethoxyphenyl)amino)pyrimidin-4-yl)oxy)-N-methylbenzamide]",> 2000,
"COC(=O)Nc1ccccc1Oc1nc(Nc2cc(OC)c(OC)c(OC)c2)ncc1Br [Example 296, Methyl (2-((5-bromo-2-((3,4,5-trimethoxyphenyl)amino)pyrimidin-4-yl)oxy)phenyl)carbamate]",< 200,
"COc1cc(Nc2ncc(Br)c(Nc3ccccc3CO)n2)cc(OC)c1OC [Example 303, (2-((5-bromo-2-((3,4,5-trimethoxyphenyl)amino)pyrimidin-4-yl)amino)phenyl)methanol]",< 200,
"Nc1nc(Nc2ccc3c(c2)CCC(=O)N3)ncc1C(F)(F)F [Example 209, 6-((4-amino-5-(trifluoromethyl)pyrimidin-2-yl)amino)-3,4-dihydroquinolin-2(1H)-one]",200 to 2000,
"O=C1CCCc2cc(Nc3ncc(C(F)(F)F)c(NC4CC4)n3)ccc21 [Example 301, 6-((4-(cyclopropylamino)-5-(trifluoromethyl)pyrimidin-2-yl)amino)-3,4-dihydronaphthalen-1(2H)-one]",< 200,
"O=C1CCc2cc(Nc3ncc(C(F)(F)F)c(N(CCO)CCO)n3)ccc2N1 [Example 212a, 6-((4-(bis(2-hydroxyethyl)amino)-5-(trifluoromethyl)pyrimidin-2-yl)amino)-3,4-dihydroquinolin-2(1H)-one]",> 2000,
"CNC(=O)c1ccccc1Oc1ccnc(Nc2cc(OC)c(OC)c(OC)c2)n1 [Example 239, N-methyl-2-((2-((3,4,5-trimethoxyphenyl)amino)pyrimidin-4-yl)oxy)benzamide]",> 2000,
"FC(F)(F)c1cnc(Nc2ccc3ncccc3c2)nc1NC1CC1 [Example 264, N4-cyclopropyl-N2-(quinolin-6-yl)-5-(trifluoromethyl) pyrimidine-2,4-diamine]",< 200,
"COc1cc(Nc2ncc(Br)c(Oc3ccccc3C(F)(F)F)n2)cc(OC)c1OC [Example 299, 5-bromo-4-(2-(trifluoromethyl)phenoxy)-N-(3,4,5-trimethoxyphenyl)pyrimidin-2-amine]",< 200,
"CC(C)(C)OC(=O)NCCCNc1nc(Nc2ccc3c(c2)CCC(=O)N3)ncc1C(F)(F)F [Example 310, Tert-butyl (3-((2-((2-oxo-1,2,3,4-tetrahydroquinolin-6-yl)amino)-5-(trifluoromethyl)pyrimidin-4-yl)amino)propyl)carbamate]",< 200,
"Oc1ccc(CCNc2ncc(C(F)(F)F)c(NC3CC3)n2)cc1 [Example 246, 4-(2-((4-(cyclopropylamino)-5-(trifluoromethyl)pyrimidin-2-yl)amino)ethyl)phenol]",200 to 2000,
"FC(F)(F)c1cnc(Nc2ccnnc2)nc1NC1CC1 [Example 221a, N4-cyclopropyl-N2-(pyridazin-4-yl)-5-(trifluoromethyl)pyrimidine-2,4-diamine]",< 200,
"CN(c1nc(Nc2ccc3c(c2)CCC(=O)N3)ncc1C(F)(F)F)C1CC1 [Example 202, 6-((4-(cyclopropyl(methyl)amino)-5-(trifluoromethyl)pyrimidin-2-yl)amino)-3,4-dihydroquinolin-2(1H)-one]",< 200,
"FC(F)(F)c1cnc(Nc2ccc3ncoc3c2)nc1NC1CC1 [Example 208a, N2-(benzo[d]oxazol-6-yl)-N4-cyclopropyl-5-(trifluoromethyl)pyrimidine-2,4-diamine]",< 200,
"FC(F)(F)c1cnc(N2CCCC2c2cccnc2)nc1NC1CC1 (centres unmarked) [Example 228, N-cyclopropyl-2-(2-(pyridin-3-yl)pyrrolidin-1-yl)-5-(trifluoromethyl)pyrimidin-4-amine]",> 2000,
"O=C1CCc2cc(Nc3ncnc(NC4CC4)n3)ccc2N1 [Example 225, 6-((4-(cyclopropylamino)-1,3,5-triazin-2-yl)amino)-3,4-dihydroquinolin-2(1H)-one]",> 2000,
"CNC(=O)c1cccc(Oc2nc(Nc3cc(OC)c(OC)c(OC)c3)ncc2Br)c1 [Example 242, 3-((5-bromo-2-((3,4,5-trimethoxyphenyl)amino)pyrimidin-4-yl)oxy)-N-methylbenzamide]",,200 to 2000

Compound,IC50 (ULK1 [1]) [nM],IC50 (ULK1 [2]) [nM]
"FC(F)(F)c1cnc(Nc2ccc3c(c2)CCNC3)nc1NC1CC1 [Example 309, N4-cyclopropyl-N2-(1,2,3,4-tetrahydroisoquinolin-6-yl)-5-(trifluoromethyl)pyrimidine-2,4-diamine.HCl]",,< 200
"O=[N+]([O-])c1cnc(NC2CC2)nc1NC1CC1 [Example 291b, N2,N4-dicyclopropyl-5-nitropyrimidine-2,4-diamine]",,> 2000
"O=C1CCc2cc(Nc3ncc(C(F)(F)F)c(OCCNC(=O)OCc4ccccc4)n3)ccc2N1 [Example 261, Benzyl (2-((2-((2-oxo-1,2,3,4-tetrahydroquinolin-6-yl)amino)-5-(trifluoromethyl)pyrimidin-4-yl)oxy)ethyl)carbamate]",,> 2000
"COc1cc(Nc2ncc(Br)c(Oc3ccccc3C(=O)NC3CC3)n2)cc(OC)c1OC [Example 270, 2-((5-bromo-2-((3,4,5-trimethoxyphenyl)amino)pyrimidin-4-yl)oxy)-N-cyclopropylbenzamide]",,200 to 2000
"COc1cc(Nc2ncc(Br)c(Oc3ccccc3NC(=O)C3CC3)n2)cc(OC)c1OC [Example 281, N-(2-((5-bromo-2-((3,4,5-trimethoxyphenyl)amino)pyrimidin-4-yl)oxy)phenyl)cyclopropanecarboxamide]",,< 200
"COc1cc(Nc2ncc(Br)c(Oc3ccccc3)n2)cc(OC)c1OC [Example 266, 5-bromo-4-phenoxy-N-(3,4,5-trimethoxyphenyl)pyrimidin-2-amine]",,< 200
"Oc1ncc(C(F)(F)F)c(NC2CC2)n1 [Example 189, 4-(cyclopropylamino)-5-(trifluoromethyl)pyrimidin-2-ol]",,> 2000
"FC(F)(F)c1cnc(Nc2cccnc2)nc1NC1CC1 [Example 196, N4-cyclopropyl-N2-(pyridin-3-yl)-5-(trifluoromethyl) pyrimidine-2,4-diamine]",,> 2000
"COc1cc(Nc2ncc(Br)c(Oc3ccccc3C(=O)N(C)C)n2)cc(OC)c1OC [Example 245, 2-((5-bromo-2-((3,4,5-trimethoxyphenyl)amino)pyrimidin-4-yl)oxy)-N,N-dimethylbenzamide]",,< 200
"COc1cc(Nc2ncc(Br)c(Oc3ccccc3C(N)=O)n2)cc(OC)c1OC [Example 249, 2-((5-bromo-2-((3,4,5-trimethoxyphenyl)amino)pyrimidin-4-yl)oxy)benzamide]",,< 200
"CNC(=O)c1cccc(Oc2nc(Nc3ccc4c(c3)CCC(=O)N4)ncc2Br)c1 [Example 268, 3-((5-bromo-2-((2-oxo-1,2,3,4-tetrahydroquinolin-6-yl)amino)pyrimidin-4-yl)oxy)-N-methylbenzamide]",,200 to 2000
"O=C1CCc2cc(Nc3ncc(C(F)(F)F)c(OC4COC4)n3)ccc2N1 [Example 231a, 6-((4-(oxetan-3-yloxy)-5-(trifluoromethyl)pyrimidin-2-yl)amino)-3,4-dihydroquinolin-2(1H)-one]",,< 200
"FC(F)(F)c1cnc(Nc2ccon2)nc1NC1CC1 [Example 214a, N4-cyclopropyl-N2-(isoxazol-3-yl)-5-(trifluoromethyl)pyrimidine-2,4-diamine]",,200 to 2000
"O=c1[nH]c2ccc(Nc3ncc(Br)c(Nc4ccc5[nH]c(=O)[nH]c5c4)n3)cc2[nH]1 [Example 233, 5,5′-((5-bromopyrimidine-2,4-diyl)bis(azanediyl))bis(1,3-dihydro-2H-benzoimidazol-2-one)]",,< 200
"O=C1Cc2cc(Nc3ncc(C(F)(F)F)c(NC4CC4)n3)ccc2N1 [Example 240, 5-((4-(cyclopropylamino)-5-(trifluoromethyl)pyrimidin-2-yl)amino)indolin-2-one]",,< 200
"NCCCNc1nc(Nc2ccc3c(c2)CCC(=O)N3)ncc1C(F)(F)F [Example 313, 6-((4-((3-aminopropyl)amino)-5-(trifluoromethyl)pyrimidin-2-yl)amino)-3,4-dihydroquinolin-2(1H)-one.HCl]",,< 200
"CN(C)c1nc(Nc2ccc3c(c2)CCC(=O)N3)ncc1C(F)(F)F [Example 220b, 6-((4-(dimethylamino)-5-(trifluoromethyl)pyrimidin-2-yl)amino)-3,4-dihydroquinolin-2(1H)-one]",,< 200
"CNC(=O)CCOc1nc(Nc2cc(OC)c(OC)c(OC)c2)ncc1Br [Example 316, 3-((5-bromo-2-((3,4,5-trimethoxyphenyl)amino)pyrimidin-4-yl)oxy)-N-methylpropanamide]",,< 200
"COCc1ccccc1Oc1nc(Nc2cc(OC)c(OC)c(OC)c2)ncc1Br [Example 274, 5-bromo-4-(2-(methoxymethyl)phenoxy)-N-(3,4,5-trimethoxyphenyl)pyrimidin-2-amine]",,< 200
"c1cc(NC2CC2)nc(Nc2ccc3c(c2)OCCO3)n1 [Example 224, N4-cyclopropyl-N2-(2,3-dihydrobenzo[b][1,4]dioxin-6-yl)pyrimidine-2,4-diamine]",,> 2000
